{"source": "patent US20220133679A1", "about": "“EFFLUX INHIBITOR COMPOSITIONS AND METHODS OF TREATMENT USING THE SAME” (Izumi Technology, LLC, priority 2012, published 2022)", "key": {"in vitro": {"experiment": "in vitro", "format": "in vitro ADME", "details": "dog, MDCK", "procedure": "(§1) An in vitro permeability assay using the MDCK cell line was performed to investigate the ability of elacridar to cross cellular membranes. […] Specifically, non-transduced MDCK cells, expressing only basal amounts of endogenous ABC-transporters, were seeded in the apical compartments of a 24 mm Transwell plate (3.0 μm Pore Polycarbonate Membrane Inserts) and incubated at 37° C. and 5.0% CO2 conditions until confluency was reached. Both apical-to-basolateral and basolateral-to-apical transport was analyzed in triplicate. To each donor compartment, 2 ml of Minimal Essential Medium (supplemented with 20% Fetal Bovine Serum) containing 1 μM elacridar and 50 nCi/ml (1.85 kBq/ml)^14C-inulin was added, while each acceptor compartment was filled with 2 ml blank Minimal Essential Medium (supplemented with 20% Fetal Bovine Serum). Samples of 100 μl were taken from each acceptor compartment at t=5 min, 30 min, 1 h, 2 h and 4 h as well as from all donor solutions for HPLC-MS/MS analysis of elacridar.\n(§2) Samples for HPLC-MS/MS analysis were prepared as follows. Samples (50 μl) were pipetted into a 2 ml eppendorf vial and the internal standard (IS) solution (1 μM of elacridar-d4) in Minimal Essential Medium (supplemented with 20% Fetal Bovine Serum) and 1 ml of diethyl ether were added. […] An aliquot of 75 μl was subjected to HPLC-MS/MS using the conditions and set-up as described above for elacridar.\n(§3) Leakage of the transwell membrane, as indicated by ^14C-inulin accumulation in the acceptor compartment, was analyzed in 10 μl samples from all time points as well as donor solutions. To each sample, 3 ml of Ultima Gold solution was added and vials were mixed thoroughly prior to radioactivity analysis using a Liquid Scintillation Counter."}, "MDCK cell monolayer": {"system": "MDCK cell monolayer", "experiment": "in vitro", "format": "in vitro ADME", "details": "dog, 1 μM", "procedure": "as §1, §2, §3"}, "[1]": {"design": "species or system female Sprague-Dawley rats", "details": "rat, in vivo, 100 mg/kg", "procedure": "Studies were conducted in female Sprague-Dawley rats. […] The selected 100 mg/kg dose is well above the level where nonlinear pharmacokinetics have been documented. Ten animals were used at weekly intervals between each dosing to allow washout of the drug from the previous dosing.\nElacridar suspension formulation was prepared by weighing 100.03 mg of elacridar, which was first suspended in 5 ml of water, followed by 5 ml of vehicle solution (2.5% w/v of hydroxypropyl methyl cellulose (HPMC) and 2% v/v of Tween 80). This suspension was stirred for about 2.5 hours prior to dosing. The final concentration was 10 mg/ml. This suspension was given at 10 μl per gram body weight to achieve a dose level of 100 mg/kg\nElacridar nanoparticle (NP) suspensions were used as received, except for a final 5-fold dilution step to obtain a NP suspension of 10 mg/ml of elacridar.\nThere were three study groups: 1) Elacridar Suspension (n=4); 2) Elacridar TPGS nanoparticles (n=5); and 3) Elacridar Poloxamer nanoparticles (n=5). All animals received elacridar orally by gavage under light isoflurane anesthesia. The animals were fasted for a period of 3 h before drug administration. Food pellets were returned to the cages after the 4 h sampling point. Blood samples from the tail vein at: 15, 30 min, 1, 2, 4, 7, 24, 30 and 48 hours. Samples were kept on ice and centrifuged within 2 h to separate plasma. Plasma was stored at −20° C.\nFormulation for i.v. administration was prepared by weighing 61.12 mg of elacridar and dissolving this in 2.056 ml of DMSO. The final concentration was 30 mg/ml. Animals (n=4) received […] per gram body weight (5 mg/kg). Blood samples were taken from the tail vein at: 5, 15, 30 min, 1, 2, 4, 7, 24, 30 and 48 h. Samples were kept on ice and centrifuged within 2 h to separate plasma. Plasma was stored at −20° C.\nSamples were pre-treated as follows. […] 1000 μl of diethyl ether was added."}}}
{"smiles": "COc1cc2c(cc1OC)CN(CCc1ccc(NC(=O)c3cccc4c(=O)c5cccc(OC)c5[nH]c34)cc1)CC2", "note": "[elacridar]", "values": [{"measurement": "Papp A→B at 4 h, 1 μM", "setting": "in vitro", "result": 11.2, "unit": "×10⁻⁶ cm/s"}, {"measurement": "Papp B→A at 4 h, 1 μM", "setting": "in vitro", "result": 10.9, "unit": "×10⁻⁶ cm/s"}, {"measurement": "amount of elacridar at the receptor side relative to drug content at the donor side", "setting": "MDCK cell monolayer", "result": "about 6%"}, {"measurement": "tolerability of dosing", "setting": "[1]", "result": "tolerated these doses of elacridar without any problem"}]}
